Laboratory results published in patent US8883963B2 (Cadila Healthcare Limited, priority 2007, dated 2014).
Non-standard residues stand in square brackets, D forms with d. Residues, ends and D or L forms follow the SMILES beside them. ξ: configuration not given here. *: point of attachment. X9 = CCc1cc(OC)ccc1-c1ccc(CC(NC(=S)[C@H](CC(=O)O)N*)C(=S)NC(CCCc2ccccc2F)C(N)=O)cc1; ξBip(2'-Et-4'-OMe) = CCc1cc(OC)ccc1-c1ccc(CC(N)C(=O)O)cc1; ξαMePhe(2-F) = CC(N)(Cc1ccccc1F)C(=O)O; aThr = C[C@H](O)[C@H](N)C(=O)O; ξhhPhe = NC(CCCc1ccccc1)C(=O)O; Aib = CC(C)(N)C(=O)O

Legend:
[1] = test system: RIN5F (Rat Insulinoma) cells; assay: In vitro glucose-dependent insulin secretion (RIN5F cell assay screening protocol); assay type: cell-based; conditions: 16.7 mM glucose load
Method: RIN5F (Rat Insulinoma) cells were cultured in RPMI 1640 medium supplemented with sodium pyruvate (1 mM) HEPES and Glucose (4.5 g/L) in a humidified incubator (5% CO2), at 37° C. After trypsinization, RIN5F cells were seeded at a concentration of 0.2×10^6 cells per well, in 12 well plates.
The buffer was replaced after 40 min. and the cells were incubated (37° C.) with the test peptidomimetics, at different concentration, for 30 min., both in the presence (16.7 mM) and absence (0 mM) of glucose load. The supernatant was collected and the insulin amount was measured by ultra sensitive Rat insulin ELISA kit (Crystal Chem, IL). The protein was estimated in the supernatant using Bicinchoninic Acid kit, according to the manufacturer's protocol (Sigma Aldrich, MO). The total insulin content obtained in Pico-gram (pg) was divided with the total protein (μg) in order to normalize for differences in cell density between wells.

Human GLP-1 receptor = target: T1, Human GLP-1 receptor (Homo sapiens, UniProt P43220); assay: In vitro Human GLP-1 R agonist activity (cyclic AMP determination) in CHO/human GLP1R cells; assay type: cell-based
T1 construct: The full-length cDNA was cloned in pcDNA3.1(+); expressed in transfected cells
Method: The novel peptidomimetics were screened for Human GLP-1 receptor (HGLP-1 R) agonist activity (in vitro), using the cAMP cell-based assay, in stably transfected CHO/human GLP1R cells. […] CHO cells were grown in Ham's F12 medium containing L-Glutamine (2 mM), HEPES (25 mM), NaHCO3 (1.1 g/L) and supplemented with NewBorn Calf Serum (NBCS; 10%), Penicillin (50 U/ml (v/v)) and Streptomycin (50 ug/ml (v/v)). Cells were split every 3 days 1:8.
The cDNA encoding the human GLP-1 receptor was isolated by RT-PCR according to standard protocol. The full-length cDNA was cloned in pcDNA3.1(+). […] Clones expressing the receptor were generated by G418 (800 μg/ml active, Sigma) selection. The stable clones were thereafter maintained at 500 ug/ml (G418). The selected clone was used between passages 9-25 for cAMP assays.
The trypsin was inactivated using Ham's F12 medium containing 10% NBCS and the cells were suspended in 2 ml of complete medium. […] The medium was aspirated off from the 12 well plate and the cells were washed once using Ham's F12 (plain). […] The cells were incubated with the test compounds for 30 min in humidified atmosphere and 37° C. After the incubation, the medium was removed and cells were washed once with plain Ham's F12. Subsequently, the cells were lysed by adding 500 ul of ice cold 0.1 N HCl to each well and shaking for 30 minutes at 200 rpm. The cells were then scrapped, the lysate was collected in micro centrifuge tubes and centrifuged at 12000 rpm for 10 min to remove the debris. 300 ul of supernatant from each micro-centrifuge tube was then removed into a glass tube and dried under N2 for 30 min, for cAMP estimation. The total cAMP was estimated from the sample according to the manufacturer's protocol using Cyclic AMP immunoassay kit (R&D systems, Minneapolis. MN). The remaining supernatant is used to determine the protein concentration using micro BCA (Sigma). Data is calculated as percent of control (Vehicle: water) and expressed as Mean±SD.

T1 sequence (P43220 24-463): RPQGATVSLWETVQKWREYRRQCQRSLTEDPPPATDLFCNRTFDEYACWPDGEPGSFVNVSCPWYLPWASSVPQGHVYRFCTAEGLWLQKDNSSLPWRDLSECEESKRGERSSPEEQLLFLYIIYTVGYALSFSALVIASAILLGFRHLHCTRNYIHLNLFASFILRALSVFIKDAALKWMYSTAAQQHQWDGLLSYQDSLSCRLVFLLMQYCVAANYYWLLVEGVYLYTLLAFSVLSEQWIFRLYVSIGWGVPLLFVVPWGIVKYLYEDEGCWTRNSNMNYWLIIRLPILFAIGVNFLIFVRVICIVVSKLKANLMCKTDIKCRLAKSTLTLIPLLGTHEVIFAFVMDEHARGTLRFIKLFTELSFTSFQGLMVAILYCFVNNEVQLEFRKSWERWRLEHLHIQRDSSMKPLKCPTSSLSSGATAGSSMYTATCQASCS

| SMILES | Insulin secretion ([1]; 0.1 nM test compd.) | Insulin secretion ([1]; 1 nM test compd.) | Insulin secretion ([1]; 10 nM test compd.) | Human GLP-1 R activity (cAMP release), % activity with respect to control (Human GLP-1 receptor; 1 nM test compound) | Human GLP-1 R activity (cAMP release), % activity with respect to control (Human GLP-1 receptor; 10 nM test compound) | Human GLP-1 R activity (cAMP release), % activity with respect to control (Human GLP-1 receptor; 100 nM test compound) | Human GLP-1 R activity (cAMP release), % activity with respect to control (Human GLP-1 receptor; 1 μM test compound) | Human GLP-1 R activity (cAMP release), % activity with respect to control (Human GLP-1 receptor; 10 μM test compound) |
| --- | --- | --- | --- | --- | --- | --- | --- | --- |
| CCc1cc(OC)ccc1-c1ccc(CC(NC(=O)[C@H](CC(=O)O)NC(=O)[C@H](CO)NC(=O)[C@@H](NC(=O)C(C)(Cc2ccccc2F)NC(=O)[C@@H](NC(=O)CNC(=O)[C@H](CCC(N)=O)NC(=O)C(C)(C)NC(=O)[C@@H](N)Cc2c[nH]cn2)[C@H](C)O)[C@@H](C)O)C(=O)NC(CCCc2ccccc2)C(N)=O)cc1 (stereo partly shown) [compound 109] (H-H[Aib]QG[aThr][ξαMePhe(2-F)]TSD[ξBip(2'-Et-4'-OMe)][ξhhPhe]-NH2) | 12.6 ± 0.25 pg/µg/h | 15.3 ± 0.31 pg/µg/h | 29.7 ± 0.48 pg/µg/h |  |  |  |  |  |
| CCc1cc(OC)ccc1-c1ccc(CC(NC(=O)[C@H](CC(=O)O)NC(=O)[C@H](CO)NC(=O)[C@@H](NC(=O)C(C)(Cc2ccccc2F)NC(=O)[C@@H](NC(=O)CNC(=O)[C@H](CCC(N)=O)NC(=O)C(C)(C)NC(=O)[C@@H](N)Cc2c[nH]cn2)[C@@H](C)O)[C@@H](C)O)C(=O)NC(CCCc2cccc(Cl)c2)C(N)=O)cc1 (single isomer, unassigned) [compound 39] | 11.1 ± 0.12 pg/µg/h | 13.1 ± 0.13 pg/µg/h | 19.0 ± 0.16 pg/µg/h |  |  |  |  |  |
| CCc1cc(OC)ccc1-c1ccc(CC(NC(=O)[C@H](CC(=O)O)NC(=O)[C@H](CO)NC(=O)[C@@H](NC(=O)[C@H](Cc2ccccc2)NC(=O)[C@@H](NC(=O)CNC(=O)[C@H](CCC(N)=O)NC(=O)[C@H](CO)NC(=O)[C@@H](N)Cc2c[nH]cn2)[C@@H](C)O)[C@@H](C)O)C(=O)NC(CCCc2ccc(F)cc2C(F)(F)F)C(N)=O)cc1 (single isomer, unassigned) [compound 48] | 12.9 ± 0.14 pg/µg/h | 15.8 ± 0.13 pg/µg/h | 29.9 ± 0.15 pg/µg/h |  |  |  |  |  |
| CCc1cc(OC)ccc1-c1ccc(CC(NC(=S)[C@H](CC(=O)O)NC(=O)[C@H](CO)NC(=O)[C@@H](NC(=O)C(C)(Cc2ccccc2F)NC(=O)[C@@H](NC(=O)CNC(=O)[C@H](CCC(N)=O)NC(=O)C(C)(C)NC(=O)[C@H](Cc2c[nH]cn2)NC(C)=O)[C@H](C)O)[C@H](C)O)C(=S)NC(CCCc2ccccc2F)C(N)=O)cc1 (stereo partly shown) [compound 175] (Ac-H[Aib]QG[aThr][ξαMePhe(2-F)][aThr]S-X9) | 15.6 ± 0.33 pg/µg/h | 21.8 ± 0.16 pg/µg/h | 35.6 ± 0.26 pg/µg/h |  |  |  |  |  |
| CCc1cc(OC)ccc1-c1ccc(CC(CNC(CCCc2ccccc2F)C(N)=O)NC[C@H](CC(=O)O)NC(=O)[C@H](CO)NC(=O)[C@@H](NC(=O)C(C)(Cc2ccccc2F)NC(=O)[C@@H](NC(=O)CNC(=O)[C@H](CCC(N)=O)NC(=O)C(C)(C)NC(=O)[C@H](Cc2c[nH]cn2)NC(=O)OC)[C@@H](C)O)[C@@H](C)O)cc1 (single isomer, unassigned) [compound 196] |  |  |  | 39 ± 0.10% | 81 ± 0.08% | 89 ± 0.09% | 96 ± 0.11% | 99 ± 0.16% |
| CCc1cc(OC)ccc1-c1ccc(CC(NC(=O)[C@H](CC(=O)O)NC(=O)[C@H](CO)NC(=O)[C@@H](NC(=O)C(C)(Cc2ccccc2F)NC(=O)[C@@H](NC(=O)CNC(=O)[C@H](CC(C(F)(F)F)C(F)(F)F)NC(=O)C(C)(C)NC(=O)[C@@H](N)Cc2c[nH]cn2)[C@H](C)O)[C@H](C)O)C(=O)NC(CCCc2ccccc2)C(N)=O)cc1 (single isomer, unassigned) [compound 228] |  |  |  | 99 ± 0.11% | 99 ± 0.13% | 99 ± 0.16% | 99 ± 0.06% | 99 ± 0.10% |
